Measured values as given in patent publication US20230310393A1 (Tianjin Creatron Biotechnology Co., Ltd., priority 2020, published 2023).
Structures can show the parent of a compound that is named as a salt.

How the values were obtained:
[1] = Screening of crystallization inhibitors: sorafenib content in polymer carrier/cholate medium over time; format: physicochemical; settings: pH 6.8 phosphate + 0.1% SDS with the inhibitor, 37° C.
[2] = Solubility test of solid dispersions (pH 1.0 hydrochloric acid, pH 6.8 phosphate buffer, FaSSGF, FaSSIF); format: physicochemical; settings: pH 1.0 hydrochloric acid solution, 37° C., main drug:carrier 1:3
Method: An appropriate amount of solid dispersion (SD) was added to a pH 1.0 hydrochloric acid solution and a pH 6.8 phosphate buffer solution, while keeping the SD in excess, and shaken at 37° C. in a shaker at 300 rpm.

C[C@H](CCC(=O)NCC(=O)[O-])[C@H]1CC[C@H]2[C@@H]3[C@H](O)C[C@@H]4C[C@H](O)CC[C@]4(C)[C@H]3C[C@H](O)[C@]12C.[Na+] [0.3% SGC, sodium glycocholate]
Sorafenib content detection ([1]; 0.5 h): 14.32 µg/mL
Sorafenib content detection ([1]; 1 h): 5.88 µg/mL
Sorafenib content detection ([1]; 2 h): 4.32 µg/mL
Sorafenib content detection ([1]; 3 h): 3.98 µg/mL
Sorafenib content detection ([1]; 4 h): 3.77 µg/mL
Sorafenib content detection ([1]; 6 h): 3.57 µg/mL

C[C@H](CCC(=O)NCC(=O)[O-])[C@H]1CC[C@H]2[C@@H]3[C@H](O)C[C@@H]4C[C@H](O)CC[C@]4(C)[C@H]3CC[C@]12C.[Na+] [0.3% SGCDC, sodium glycochenodeoxycholate]
Sorafenib content detection ([1]; 0.5 h): 61.59 µg/mL
Sorafenib content detection ([1]; 1 h): 47.08 µg/mL
Sorafenib content detection ([1]; 2 h): 10.41 µg/mL
Sorafenib content detection ([1]; 3 h): 5.38 µg/mL
Sorafenib content detection ([1]; 4 h): 4.28 µg/mL
Sorafenib content detection ([1]; 6 h): 3.68 µg/mL

C[C@H](CCC(=O)NCC(=O)[O-])[C@H]1CC[C@H]2[C@@H]3CC[C@@H]4C[C@H](O)CC[C@]4(C)[C@H]3C[C@H](O)[C@]12C.[Na+] [0.3% SGDC, sodium glycodeoxycholate]
Sorafenib content detection ([1]; 0.5 h): 15.78 µg/mL
Sorafenib content detection ([1]; 1 h): 6.28 µg/mL
Sorafenib content detection ([1]; 2 h): 4.11 µg/mL
Sorafenib content detection ([1]; 3 h): 4.01 µg/mL
Sorafenib content detection ([1]; 4 h): 4.04 µg/mL
Sorafenib content detection ([1]; 6 h): 3.87 µg/mL

C[C@H](CCC(=O)NCCS(=O)(=O)[O-])[C@H]1CC[C@H]2[C@@H]3[C@@H](O)C[C@@H]4C[C@H](O)CC[C@]4(C)[C@H]3CC[C@]12C.[Na+] [0.3% STCDC]
Sorafenib content detection ([1]; 0.5 h): 14.43 µg/mL
Sorafenib content detection ([1]; 1 h): 6.22 µg/mL
Sorafenib content detection ([1]; 2 h): 4.69 µg/mL
Sorafenib content detection ([1]; 3 h): 4.79 µg/mL
Sorafenib content detection ([1]; 4 h): 4.81 µg/mL
Sorafenib content detection ([1]; 6 h): 5.79 µg/mL

C[C@H](CCC(=O)NCCS(=O)(=O)[O-])[C@H]1CC[C@H]2[C@@H]3CC[C@@H]4C[C@H](O)CC[C@]4(C)[C@H]3C[C@H](O)[C@]12C.[Na+] [0.3% STDC, sodium taurodeoxycholate]
Sorafenib content detection ([1]; 0.5 h): 47.72 µg/mL
Sorafenib content detection ([1]; 1 h): 25.90 µg/mL
Sorafenib content detection ([1]; 2 h): 11.19 µg/mL
Sorafenib content detection ([1]; 3 h): 7.82 µg/mL
Sorafenib content detection ([1]; 4 h): 6.58 µg/mL
Sorafenib content detection ([1]; 6 h): 5.90 µg/mL

CNC(=O)c1cc(Oc2ccc(NC(=O)Nc3ccc(Cl)c(C(F)(F)F)c3)cc2)ccn1 [TSSLFN, Sorafenib tosylate]
Solubility ([2]; 0.5 h): 3.7 µg/mL
Solubility ([2]; 2 h): 4.1 µg/mL
Solubility ([2]; 4 h): 4.1 µg/mL
